# Source: US20120009239A1, “Prebiotic Formulations for use with Probiotics to Increase Probiotic Growth Rate and Activity” (MASTER SUPPLEMENTS, INC., priority 2010, published 2012)
# Key:
# [1] = tested on: L. acidophilus NCFM (LA-1); test: Growth (turbidity) and lactic acid producing activity of L. acidophilus NCFM in MRS broth with polysorbate 80 or substitute; type: cell-based, Lactobacillus acidophilus; conditions: for Lactic Acid % / pH: additive at 0.1% in MRS; for NTU (Turbidity): additive at 0.1% in MRS (polysorbate 80 control 1.0 g per liter)
# Protocol: The prebiotics of this invention can be in the same capsule or formulation as the probiotics, or in a separate dosage form. The prebiotics should be in a separate dosage form if they are naturally occurring, as opposed to adsorbed. […] Prebiotic formulations are often probiotic strain dependent. […] At specified time intervals, a 30 ml sample from each flask was aseptically transferred into a HACH […] Turbidimeter sample cell. The turbidity of each sample was read and the results were reported in NTU's. The same 30 ml sample used for the turbidity reading was transferred into a 250 ml glass beaker, and the pH was recorded. The sample was titrated using 0.1N NaOH to an endpoint of pH 6.8, and the quantity of NaOH used was recorded. The % Lactic Acid was calculated using the following formula: % Lactic Acid=((mls of 0.1N NaOH)×(0.1N)×(90 gm/mole)×(1 L/1000 ml))×100 mls of sample % Lactic Acid=(mls of 0.1N NaOH)×(0.9) (Results reported at 12 hours and 23 hours like: 12/23 in Table I below)
# [2] = tested on: Lactobacillus rhamnosus—Lr-32 (LR-44); test: Growth and lactic acid producing activity of Lactobacillus rhamnosus Lr-32 in MRS broth; type: cell-based; conditions: for Lactic Acid % / pH: additive at 0.1% in MRS; for NTU (Turbidity): additive at 0.1% in MRS (polysorbate 80 control 1.0 g per liter)
# Text: (§1) The prebiotics of this invention can be in the same capsule or formulation as the probiotics, or in a separate dosage form. The prebiotics should be in a separate dosage form if they are naturally occurring, as opposed to adsorbed. The prebiotics of this invention may be taken with carbohydrate or fiber to increase their effectiveness. Prebiotic formulations are often probiotic strain dependent. Some Lactobacillus strains, for example, respond best to a form of lecithin derived from sunflowers (Sunflower Lecithin) while others show no preference to lecithin type and respond equally well to soy lecithin. Other strains show a synergistic response when lecithin is used together with oleic acid. […] Each flask was tempered to 37° C. and aseptically inoculated with 0.14 gm of the individual probiotic strains (in Examples 5 to 10 below) to be tested. At specified time intervals, a 30 ml sample from each flask was aseptically transferred into a HACH […] Turbidimeter sample cell. The turbidity of each sample was read and the results were reported in NTU's. The same 30 ml sample used for the turbidity reading was transferred into a 250 ml glass beaker, and the pH was recorded. The sample was titrated using 0.1N NaOH to an endpoint of pH 6.8, and the quantity of NaOH used was recorded. The % Lactic Acid was calculated using the following formula: % Lactic Acid=((mls of 0.1N NaOH)×(0.1N)×(90 gm/mole)×(1 L/1000 ml))×100 mls of sample % Lactic Acid=(mls of 0.1N NaOH)×(0.9) (Results reported at 12 hours and 23 hours like: 12/23 in Table IV below)
# [3] = tested on: Lactobacillus salivarius—Ls-33 (LS-30); test: Growth and lactic acid producing activity of Lactobacillus salivarius Ls-33 in MRS broth; type: cell-based; conditions: for Lactic Acid % / pH: additive at 0.1% in MRS; for NTU (Turbidity): additive at 0.1% in MRS (polysorbate 80 control 1.0 g per liter)
# Text: as §1, with “V” for “IV”
# [4] = tested on: THERALAC® Lot # 32310A, a commercial probiotic product; test: Growth of the commercial probiotic […] in MRS broth; type: cell-based; conditions: for Lactic Acid % / pH: additive at 0.1% in MRS; for NTU (Turbidity): additive at 0.1% in MRS (polysorbate 80 control 1.0 g per liter), THERALAC inoculated at 0.1%
# Protocol: MRS broth was prepared with (for controls) and without (for tests) polysorbate 80 and filled into 1 liter screw cap flasks at 500 ml each and autoclaved at 121° C. for 30 minutes. Various lecithin and/or oleic acid additives, or nothing (negative control), was added to the tests flasks prior to autoclaving. The flasks were then tempered to 37° C. in a water bath and inoculated at 0.1% with […]® Lot # 32310A, a commercial probiotic product (Master Supplements, Inc., Victoria, Minn.). Capsules of […]® were opened and the contents mixed aseptically to serve as the inoculum source. At an inoculation rate of 0.1%, approximately 80 million CFU was added per ml of MRS media. […]® contains (formulation strength) the following probiotic strains at the approximate CFU values listed per gram: Lactobacillus acidophilus NCFM (LA-1): 30 billion CFU Bifidobacterium lactis B1-04 (BL-34): 30 billion CFU Lactobacillus paracasei Lpc-37 (F-19): 14 billion CFU Lactobacillus rhamnosus Lr-32 (LR-44): 6 billion CFU Bifidobacterium lactis Bi-07: 8 billion CFU Turbidity, pH and titrations (made with 0.1 N NaOH and reported as % lactic acid) were made at various times up to 23 hours. The results are presented below in Table VI for the 12 and 23-hour analyses.
# [5] = tested on: Lactobacillus paracasei Lpc-37 (F-19); test: Growth and lactic acid producing activity of Lactobacillus paracasei Lpc-37 in MRS broth; type: cell-based; conditions: for Lactic Acid % / pH: additive at 0.1% in MRS; for NTU (Turbidity): additive at 0.1% in MRS (polysorbate 80 control 1.0 g per liter)
# Text: as §1, with “III” for “IV”
# [6] = tested on: Bifidobacterium lactic Bl-04 (BL-34); test: Growth and lactic acid producing activity of Bifidobacterium lactis Bl-04 in MRS broth; type: cell-based; conditions: for Lactic Acid % / pH: additive at 0.1% in MRS; for NTU (Turbidity): additive at 0.1% in MRS (polysorbate 80 control 1.0 g per liter)
# Text: as §1, with “II” for “IV”
# [7] = at the concentrations studied (0.1% + 0.1%)
compound,measurement,setting,value
CCCCCCCC/C=C\CCCCCCCC(=O)O [Oleic Acid],"Replacement of polysorbate 80 (growth and activity), conclusion in words",[1]; 0.1% inclusion rate,somewhat effective
same,"Replacement of polysorbate 80 (growth and activity), conclusion in words",[2]; 0.1% inclusion rate,not as good a replacement for polysorbate 80 as sunflower lecithin
same,Lactic Acid %,[2]; 12 hours,0.072%
same,pH,[2]; 12 hours,6.2
same,pH,[2]; 23 hours,4.1
same,Synergy with sunflower lecithin,[2]; [7],not synergistic
same,"Replacement of polysorbate 80 (growth and activity), conclusion in words",[3]; 0.1% inclusion rate,not as good a replacement
same,Lactic Acid %,[3]; 12 hours,0.073%
same,pH,[3]; 12 hours,4.4
same,pH,[3]; 23 hours,3.8
same,"Replacement of polysorbate 80 (growth and activity), conclusion in words",[4]; 0.1% inclusion rate,acceptable replacement value for polysorbate 80
same,"Replacement of polysorbate 80 (growth and activity), conclusion in words",[5]; 0.1% inclusion rate,not as effective a replacement for polysorbate 80 as sunflower lecithin
same,Synergy with sunflower lecithin,[5]; [7],does not appear to be synergistic
Polysorbate 80,Lactic Acid %,[1]; 12 hours,1.09%
same,pH,[1]; 12 hours,4.2
same,NTU (Turbidity),[1]; 12 hours,1855 NTU
same,Lactic Acid %,[1]; 23 hours,1.27%
same,pH,[1]; 23 hours,4.1
same,NTU (Turbidity),[1]; 23 hours,2038 NTU
same,Lactic Acid %,[2]; 12 hours,1.12%
same,pH,[2]; 12 hours,4.0
same,NTU (Turbidity),[2]; 12 hours,2804 NTU
same,Lactic Acid %,[2]; 23 hours,1.67%
same,pH,[2]; 23 hours,3.7
same,NTU (Turbidity),[2]; 23 hours,3776 NTU
same,Lactic Acid %,[3]; 12 hours,1.42%
same,pH,[3]; 12 hours,3.8
same,NTU (Turbidity),[3]; 12 hours,3426 NTU
same,Lactic Acid %,[3]; 23 hours,1.68%
same,pH,[3]; 23 hours,3.7
same,NTU (Turbidity),[3]; 23 hours,3931 NTU
same,Lactic Acid %,[6]; 12 hours,0.57%
same,pH,[6]; 12 hours,4.8
same,NTU (Turbidity),[6]; 12 hours,922 NTU
same,Lactic Acid %,[6]; 23 hours,0.84%
same,pH,[6]; 23 hours,4.5
same,NTU (Turbidity),[6]; 23 hours,1434 NTU
same,Lactic Acid %,[4]; 12 hours,1.42%
same,pH,[4]; 12 hours,3.9
same,NTU (Turbidity),[4]; 12 hours,3311 NTU
same,Lactic Acid %,[4]; 23 hours,1.84%
same,pH,[4]; 23 hours,3.7
same,NTU (Turbidity),[4]; 23 hours,3694 NTU
same,Lactic Acid %,[5]; 12 hours,0.99%
same,pH,[5]; 12 hours,4.2
same,NTU (Turbidity),[5]; 12 hours,1664 NTU
same,Lactic Acid %,[5]; 23 hours,1.39%
same,pH,[5]; 23 hours,3.9
same,NTU (Turbidity),[5]; 23 hours,2824 NTU
